IC50 data for 29 compounds are collected here from patent US20100105655A1, “NOVEL COMPOUNDS 515” (ASTRAZENECA AB, priority 2008, published 2010).

pIC50: −log10 of the molar value.

For orientation: pIC50 means the negative decadic logarithm of the IC50, by convention in mol/L.

T1 sequence (P08069 31-1367): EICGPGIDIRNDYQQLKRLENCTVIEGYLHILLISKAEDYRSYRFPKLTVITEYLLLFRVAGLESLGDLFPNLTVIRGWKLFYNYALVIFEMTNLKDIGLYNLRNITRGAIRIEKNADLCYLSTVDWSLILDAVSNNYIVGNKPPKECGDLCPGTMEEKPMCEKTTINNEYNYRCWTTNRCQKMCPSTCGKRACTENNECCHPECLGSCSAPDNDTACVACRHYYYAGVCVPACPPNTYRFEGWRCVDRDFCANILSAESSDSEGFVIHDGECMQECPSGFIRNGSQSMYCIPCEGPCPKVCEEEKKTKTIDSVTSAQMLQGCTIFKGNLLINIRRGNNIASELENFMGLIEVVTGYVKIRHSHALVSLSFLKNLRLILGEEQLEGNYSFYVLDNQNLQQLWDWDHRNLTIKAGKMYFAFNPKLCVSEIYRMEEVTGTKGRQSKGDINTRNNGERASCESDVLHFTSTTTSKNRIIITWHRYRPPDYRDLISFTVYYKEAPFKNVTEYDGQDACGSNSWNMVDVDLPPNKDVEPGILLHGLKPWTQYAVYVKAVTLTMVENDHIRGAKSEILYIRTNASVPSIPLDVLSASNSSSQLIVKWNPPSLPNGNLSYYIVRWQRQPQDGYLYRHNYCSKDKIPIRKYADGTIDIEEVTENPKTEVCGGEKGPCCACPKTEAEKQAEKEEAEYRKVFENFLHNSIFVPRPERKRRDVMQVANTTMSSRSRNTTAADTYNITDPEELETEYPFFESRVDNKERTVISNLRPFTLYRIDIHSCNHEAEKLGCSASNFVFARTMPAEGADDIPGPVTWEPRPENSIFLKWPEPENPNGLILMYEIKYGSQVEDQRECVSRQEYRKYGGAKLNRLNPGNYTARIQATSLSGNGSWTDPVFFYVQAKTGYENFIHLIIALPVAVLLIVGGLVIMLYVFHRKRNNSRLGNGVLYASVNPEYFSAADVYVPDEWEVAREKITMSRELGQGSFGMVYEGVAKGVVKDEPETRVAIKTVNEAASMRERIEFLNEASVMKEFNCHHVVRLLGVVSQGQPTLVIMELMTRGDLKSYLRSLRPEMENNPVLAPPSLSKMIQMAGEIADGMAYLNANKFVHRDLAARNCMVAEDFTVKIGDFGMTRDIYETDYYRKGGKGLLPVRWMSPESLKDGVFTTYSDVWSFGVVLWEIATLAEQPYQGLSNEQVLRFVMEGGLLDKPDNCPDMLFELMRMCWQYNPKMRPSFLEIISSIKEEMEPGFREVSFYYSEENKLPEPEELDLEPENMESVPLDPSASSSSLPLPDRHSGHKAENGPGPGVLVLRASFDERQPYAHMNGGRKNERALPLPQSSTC

The test concerns the target T1, IGFR kinase (Homo sapiens, UniProt P08069).
T1 construct: purchased Millipore
Description: Enzyme assay (c), IGFR kinase, Caliper LabChip. The format is biochemical. The following applies: 30 nM IGFR kinase, 6 uM ATP, 3 uM peptide mix; read-out: IGFR IC50. As to the method:
For Echo dosing the solvent was 100% DMSO. A master plate was prepared with 40 ul of 10 mM stock solution of the test compound in DMSO in quadrant 1 of a Labcyte 384 well plate. A 1 in 100 dilution was made from quadrant 1 into quadrant 2 by removing 0.4 ul and adding it to 39.6 ul of DMSO. Subsequent 1 in 100 dilutions were made into quadrant 3 from quadrant 2 and quadrant 4 from quadrant 3.
Multiple 2.5 nl droplets were dispensed from each quadrant of the master plate to generate the dose range that was required in the test. The dose range most commonly used was as follows: 100 uM, 30 uM, 10 uM, 3 uM, 1 uM, 0.3 uM, 0.1 uM, 0.03 uM, 0.01 uM, 0.003 uM, 0.001 uM, 0.0001 uM. Each well was backfilled with dimethyl sulfoxide (DMSO) to a total volume of 120 nl, such that when the enzyme and substrate mix was added the final DMSO concentration was 1%.
DMSO was added to max control wells as 120 nl, minimum control wells were treated with 120 nl of compound at a concentration that inhibited the enzyme activity 100%.
Integration of the substrate and product peaks was carried out using Caliper LabChip software and IC50 curves were calculated using Origin™ software.
With `COc1cc(OC[C@@H]2CCCN2C(C)=O)ccc1Nc1ncc(Cl)c(-c2cnc3ccccn23)n1` [Example 16, 1-[(2S)-2-[[4-[(5-chloro-4-imidazo[1,2-a]pyridin-3-yl-pyrimidin-2-yl)amino]-3-methoxy-phenoxy]methyl]pyrrolidin-1-yl]ethanone], the pIC50 was 7.49.
Under `COc1ccc(OC[C@H]2CCCN2C(C)=O)cc1Nc1ncc(Cl)c(-c2cnc3ccccn23)n1` [Example 17, 1-[(2R)-2-[[3-[(5-chloro-4-imidazo[1,2-a]pyridin-3-yl-pyrimidin-2-yl)amino]-4-methoxy-phenoxy]methyl]pyrrolidin-1-yl]ethanone] stands 7.24.
Under `COc1cc(N2CCNC(C(=O)N(C)C)C2)ccc1Nc1ncc(Cl)c(-c2cnc3ccccn23)n1` (centres unmarked) [Example 19, 4-[4-[(5-chloro-4-imidazo[1,2-a]pyridin-3-yl-pyrimidin-2-yl)amino]-3-methoxy-phenyl]-N,N-dimethyl-piperazine-2-carboxamide] stands 7.96; under `COc1cc(CN2CC[C@H](O)C2)ccc1Nc1ncc(Cl)c(-c2cnc3ccccn23)n1` [Example 20, (3S)-1-[[4-[(5-chloro-4-imidazo[1,2-a]pyridin-3-yl-pyrimidin-2-yl)amino]-3-methoxy-phenyl]methyl]pyrrolidin-3-ol], 7.72.
`COc1cc(C=O)ccc1Nc1ncc(Cl)c(-c2cnc3ccccn23)n1` [Example 20A, 4-(5-chloro-4-(imidazo[1,2-a]pyridin-3-yl)pyrimidin-2-ylamino)-3-methoxybenzaldehyde]: the pIC50 was 7.17.
For the compound `COc1cc(CNCCO)ccc1Nc1ncc(Cl)c(-c2cnc3ccccn23)n1` [Example 21.1, 2-[[4-[(5-chloro-4-imidazo[1,2-a]pyridin-3-yl-pyrimidin-2-yl)amino]-3-methoxy-phenyl]methylamino]ethanol], the pIC50 was 7.72.
Under `COc1cc(CN(C)CCO)ccc1Nc1ncc(Cl)c(-c2cnc3ccccn23)n1` [Example 21.2, 2-[[4-[(5-chloro-4-imidazo[1,2-a]pyridin-3-yl-pyrimidin-2-yl)amino]-3-methoxy-phenyl]methyl-methyl-amino]ethanol] stands 7.43; under `COc1cc(CNCCCO)ccc1Nc1ncc(Cl)c(-c2cnc3ccccn23)n1` [Example 21.3, 3-[[4-[(5-chloro-4-imidazo[1,2-a]pyridin-3-yl-pyrimidin-2-yl)amino]-3-methoxy-phenyl]methylamino]propan-1-ol], 7.70; under `COc1cc(CN2CCN(C)CC2)ccc1Nc1ncc(Cl)c(-c2cnc3ccccn23)n1` [Example 21.4, 5-chloro-4-imidazo[1,2-a]pyridin-3-yl-N-[2-methoxy-4-[(4-methylpiperazin-1-yl)methyl]phenyl]pyrimidin-2-amine], 7.52.
Under `COc1cc(CN2CCC(O)CC2)ccc1Nc1ncc(Cl)c(-c2cnc3ccccn23)n1` [Example 21.5, 1-[[4-[(5-chloro-4-imidazo[1,2-a]pyridin-3-yl-pyrimidin-2-yl)amino]-3-methoxy-phenyl]methyl]piperidin-4-ol] stands 7.55; under `COc1cc(CN2CCN(C(C)=O)CC2)ccc1Nc1ncc(Cl)c(-c2cnc3ccccn23)n1` [Example 21.6, 1-[4-[[4-[(5-chloro-4-imidazo[1,2-a]pyridin-3-yl-pyrimidin-2-yl)amino]-3-methoxy-phenyl]methyl]piperazin-1-yl]ethanone], 7.59; under `COc1cc(CN2CCC(C(N)=O)CC2)ccc1Nc1ncc(Cl)c(-c2cnc3ccccn23)n1` [Example 21.7, 1-[[4-[(5-chloro-4-imidazo[1,2-a]pyridin-3-yl-pyrimidin-2-yl)amino]-3-methoxy-phenyl]methyl]piperidine-4-carboxamide], 7.51.
Under `COc1cc(CN2CCN(CCO)CC2)ccc1Nc1ncc(Cl)c(-c2cnc3ccccn23)n1` [Example 21.8, 2-[4-[[4-[(5-chloro-4-imidazo[1,2-a]pyridin-3-yl-pyrimidin-2-yl)amino]-3-methoxy-phenyl]methyl]piperazin-1-yl]ethanol] stands 7.70.
As for `COCCCNCc1ccc(Nc2ncc(Cl)c(-c3cnc4ccccn34)n2)c(OC)c1` [Example 21.9, 5-chloro-4-imidazo[1,2-a]pyridin-3-yl-N-[2-methoxy-4-[(3-methoxypropylamino)methyl]phenyl]pyrimidin-2-amine], the pIC50 was 7.77.
For `COc1cc(CN2CCC2)ccc1Nc1ncc(Cl)c(-c2cnc3ccccn23)n1` [Example 21.10, N-[4-(azetidin-1-ylmethyl)-2-methoxy-phenyl]-5-chloro-4-imidazo[1,2-a]pyridin-3-yl-pyrimidin-2-amine], the negative logarithm of the IC50 (pIC50) is 7.74.
Turning to `COc1cc(CN2CCCN(C)CC2)ccc1Nc1ncc(Cl)c(-c2cnc3ccccn23)n1` [Example 21.11, 5-chloro-4-imidazo[1,2-a]pyridin-3-yl-N-[2-methoxy-4-[(4-methyl-1,4-diazepan-1-yl)methyl]phenyl]pyrimidin-2-amine], the pIC50 is 7.64.
Under `COc1cc(CN2CCC[C@@H](O)C2)ccc1Nc1ncc(Cl)c(-c2cnc3ccccn23)n1` [Example 21.12, (3R)-1-[[4-[(5-chloro-4-imidazo[1,2-a]pyridin-3-yl-pyrimidin-2-yl)amino]-3-methoxy-phenyl]methyl]piperidin-3-ol] stands 7.62; under `COCCN(C)Cc1ccc(Nc2ncc(Cl)c(-c3cnc4ccccn34)n2)c(OC)c1` [Example 21.13, 5-chloro-4-imidazo[1,2-a]pyridin-3-yl-N-[2-methoxy-4-[(2-methoxyethyl-methyl-amino)methyl]phenyl]pyrimidin-2-amine], 7.49; under `COc1cc(CN2CCCOCC2)ccc1Nc1ncc(Cl)c(-c2cnc3ccccn23)n1` [Example 21.14, 5-chloro-4-imidazo[1,2-a]pyridin-3-yl-N-[2-methoxy-4-(1,4-oxazepan-4-ylmethyl)phenyl]pyrimidin-2-amine], 7.55.
The same measure for `COc1cc(CN[C@H](C)CO)ccc1Nc1ncc(Cl)c(-c2cnc3ccccn23)n1` [Example 21.15, (2R)-2-[[4-[(5-chloro-4-imidazo[1,2-a]pyridin-3-yl-pyrimidin-2-yl)amino]-3-methoxy-phenyl]methylamino]propan-1-ol]: 7.59.
In the case of `COc1cc(CN2CC(O)C2)ccc1Nc1ncc(Cl)c(-c2cnc3ccccn23)n1` [Example 21.16, 1-[[4-[(5-chloro-4-imidazo[1,2-a]pyridin-3-yl-pyrimidin-2-yl)amino]-3-methoxy-phenyl]methyl]azetidin-3-ol], the pIC50 was 7.66.
In the case of `COc1cc(CN2CCC[C@H](O)C2)ccc1Nc1ncc(Cl)c(-c2cnc3ccccn23)n1` [Example 21.17, (3S)-1-[[4-[(5-chloro-4-imidazo[1,2-a]pyridin-3-yl-pyrimidin-2-yl)amino]-3-methoxy-phenyl]methyl]piperidin-3-ol], the pIC50 is 7.55.
Regarding `COc1cc(CN2CC[C@@H](O)C2)ccc1Nc1ncc(Cl)c(-c2cnc3ccccn23)n1` [Example 21.18, (3R)-1-[[4-[(5-chloro-4-imidazo[1,2-a]pyridin-3-yl-pyrimidin-2-yl)amino]-3-methoxy-phenyl]methyl]pyrrolidin-3-ol], the pIC50 was 7.77.
Regarding `COc1cc(CN[C@@H](C)CO)ccc1Nc1ncc(Cl)c(-c2cnc3ccccn23)n1` [Example 21.19, (2S)-2-[[4-[(5-chloro-4-imidazo[1,2-a]pyridin-3-yl-pyrimidin-2-yl)amino]-3-methoxy-phenyl]methylamino]propan-1-ol], the pIC50 is 7.64.
The same measure for `COc1cc(N2CCN(C(=O)C3(O)CC3)CC2)ccc1Nc1ncc(Cl)c(-c2cnc3ccccn23)n1` [Example 22, [4-[4-[(5-chloro-4-imidazo[1,2-a]pyridin-3-yl-pyrimidin-2-yl)amino]-3-methoxy-phenyl]piperazin-1-yl]-(1-hydroxycyclopropyl)methanone]: 7.82; for `COc1cc(N2CCN(C(=O)[C@@H]3CCCN3)CC2)ccc1Nc1ncc(Cl)c(-c2cnc3ccccn23)n1` [Example 23, [4-[4-[(5-chloro-4-imidazo[1,2-a]pyridin-3-yl-pyrimidin-2-yl)amino]-3-methoxy-phenyl]piperazin-1-yl]-[(2S)-pyrrolidin-2-yl]methanone]: 8.05; for `COc1cc(N2CCN(C(=O)[C@H]3CCCCN3)CC2)ccc1Nc1ncc(Cl)c(-c2cnc3ccccn23)n1` [Example 24.1, [4-[4-[(5-chloro-4-imidazo[1,2-a]pyridin-3-yl-pyrimidin-2-yl)amino]-3-methoxy-phenyl]piperazin-1-yl]-[(2R)-2-piperidyl]methanone]: 8.10.
For the compound `COc1cc(N2CCN(C(=O)[C@@H]3CCCCN3)CC2)ccc1Nc1ncc(Cl)c(-c2cnc3ccccn23)n1` [Example 24.2, [4-[4-[(5-chloro-4-imidazo[1,2-a]pyridin-3-yl-pyrimidin-2-yl)amino]-3-methoxy-phenyl]piperazin-1-yl]-[(2S)-2-piperidyl]methanone], the pIC50 was 8.22.
Turning to `COc1cc(N2CCN(C(=O)C3CCCN3)CC2)ccc1Nc1ncc(Cl)c(-c2cnc3ccccn23)n1` (centres unmarked) [Example 24.3, [4-[4-[(5-chloro-4-imidazo[1,2-a]pyridin-3-ylpyrimidin-2-yl)amino]-3-methoxyphenyl]piperazin-1-yl]-pyrrolidin-2-yl methanone], the negative-log IC50 (pIC50) was 8.30.
